Values of other authors, collected in patent US20220387384A1, “METHODS OF TREATING LSD1-RELATED DISEASES AND DISORDERS WITH LSD1 INHIBITORS” (Taiho Pharmaceutical Co., Ltd., priority 2019, published 2022).

Conditions: i.e. about 3 days; NPL 11

Compound: COc1ccc(-c2c(-c3ccc(C#N)c(F)c3)nc(N3CCC(N)CC3)n(C)c2=O)cc1F [CC-90011]
- half-life in pharmacokinetics: ~71 h
